Results as given in the CheMixHub viscosity set.
± gives the uncertainty stated by the source.

Assay: xn = mol fraction of the nth substance listed

BrCCBr + Cc1ccc(C)cc1
viscosity (298.15 K, 101.33 kPa, x1 = 0.1435): 0.6686 ± 0.0084 mPa·s
viscosity (298.15 K, 101.33 kPa, x1 = 0.2783): 0.7322 ± 0.009 mPa·s
viscosity (298.15 K, 101.33 kPa, x1 = 0.391): 0.7899 ± 0.0096 mPa·s
viscosity (298.15 K, 101.33 kPa, x1 = 0.4898): 0.887 ± 0.011 mPa·s
viscosity (298.15 K, 101.33 kPa, x1 = 0.5921): 1.001 ± 0.012 mPa·s
viscosity (298.15 K, 101.33 kPa, x1 = 0.6809): 1.082 ± 0.013 mPa·s
viscosity (298.15 K, 101.33 kPa, x1 = 0.7685): 1.169 ± 0.014 mPa·s
viscosity (298.15 K, 101.33 kPa, x1 = 0.8555): 1.309 ± 0.015 mPa·s
viscosity (298.15 K, 101.33 kPa, x1 = 0.9211): 1.459 ± 0.017 mPa·s
viscosity (308.15 K, 101.33 kPa, x1 = 0.1371): 0.5822 ± 0.0073 mPa·s
viscosity (308.15 K, 101.33 kPa, x1 = 0.2566): 0.6257 ± 0.0078 mPa·s
viscosity (308.15 K, 101.33 kPa, x1 = 0.3821): 0.6992 ± 0.0086 mPa·s
viscosity (308.15 K, 101.33 kPa, x1 = 0.4845): 0.7526 ± 0.0091 mPa·s
viscosity (308.15 K, 101.33 kPa, x1 = 0.5874): 0.8292 ± 0.01 mPa·s
viscosity (308.15 K, 101.33 kPa, x1 = 0.6798): 0.9216 ± 0.011 mPa·s
viscosity (308.15 K, 101.33 kPa, x1 = 0.7647): 1.018 ± 0.012 mPa·s
viscosity (308.15 K, 101.33 kPa, x1 = 0.8499): 1.154 ± 0.013 mPa·s
viscosity (308.15 K, 101.33 kPa, x1 = 0.9258): 1.273 ± 0.015 mPa·s

O=C[C@H](O)[C@@H](O)[C@H](O)CO + C[N+](C)(C)CCO.[Cl-]
viscosity (303 K, 101 kPa, x2 = 0.5): 34000 ± 5900 mPa·s
viscosity (313 K, 101 kPa, x2 = 0.5): 11900 ± 1700 mPa·s
viscosity (313.2 K, 100 kPa, x2 = 0.5): 855.5 ± 47 mPa·s
viscosity (313.2 K, 100 kPa, x2 = 0.6): 1450 ± 97 mPa·s
viscosity (313.2 K, 100 kPa, x2 = 0.667): 3450 ± 240 mPa·s
viscosity (318.2 K, 100 kPa, x2 = 0.5): 565.8 ± 30 mPa·s
viscosity (318.2 K, 100 kPa, x2 = 0.6): 886.5 ± 51 mPa·s
viscosity (318.2 K, 100 kPa, x2 = 0.667): 1886 ± 120 mPa·s
viscosity (323 K, 101 kPa, x2 = 0.5): 4740 ± 570 mPa·s

OCC(F)(F)F + O
viscosity (298 K, 101.3 kPa, x1 = 0.026): 1.152 ± 0.031 mPa·s
viscosity (298 K, 101.3 kPa, x1 = 0.0503): 1.358 ± 0.035 mPa·s
viscosity (298 K, 101.3 kPa, x1 = 0.075): 1.528 ± 0.038 mPa·s
viscosity (298 K, 101.3 kPa, x1 = 0.0984): 1.634 ± 0.04 mPa·s
viscosity (298 K, 101.3 kPa, x1 = 0.1984): 1.882 ± 0.042 mPa·s
viscosity (298 K, 101.3 kPa, x1 = 0.3016): 1.876 ± 0.038 mPa·s
viscosity (298 K, 101.3 kPa, x1 = 0.4012): 1.819 ± 0.034 mPa·s
viscosity (298 K, 101.3 kPa, x1 = 0.5015): 1.757 ± 0.03 mPa·s
viscosity (298 K, 101.3 kPa, x1 = 0.5993): 1.713 ± 0.026 mPa·s
viscosity (298 K, 101.3 kPa, x1 = 0.6501): 1.656 ± 0.024 mPa·s
viscosity (298 K, 101.3 kPa, x1 = 0.8029): 1.651 ± 0.02 mPa·s
viscosity (298 K, 101.3 kPa, x1 = 0.9024): 1.673 ± 0.018 mPa·s
viscosity (298.15 K, 100 kPa, x1 = 0.1022): 1.608 ± 0.05 mPa·s
viscosity (298.15 K, 100 kPa, x1 = 0.2084): 1.828 ± 0.054 mPa·s
viscosity (298.15 K, 100 kPa, x1 = 0.3227): 1.802 ± 0.05 mPa·s
viscosity (298.15 K, 100 kPa, x1 = 0.4087): 1.743 ± 0.046 mPa·s
viscosity (298.15 K, 100 kPa, x1 = 0.5727): 1.665 ± 0.041 mPa·s
viscosity (298.15 K, 100 kPa, x1 = 0.7111): 1.621 ± 0.038 mPa·s
viscosity (298.15 K, 100 kPa, x1 = 0.9104): 1.64 ± 0.036 mPa·s
viscosity (298.15 K, 101 kPa, x1 = 0.0196): 1.061 ± 0.009 mPa·s
viscosity (298.15 K, 101 kPa, x1 = 0.04313): 1.271 ± 0.012 mPa·s
viscosity (298.15 K, 101 kPa, x1 = 0.07168): 1.446 ± 0.016 mPa·s
viscosity (298.15 K, 101 kPa, x1 = 0.1072): 1.642 ± 0.021 mPa·s
viscosity (298.15 K, 101 kPa, x1 = 0.1525): 1.773 ± 0.026 mPa·s
viscosity (298.15 K, 101 kPa, x1 = 0.2128): 1.852 ± 0.031 mPa·s
viscosity (298.15 K, 101 kPa, x1 = 0.296): 1.865 ± 0.036 mPa·s
viscosity (298.15 K, 101 kPa, x1 = 0.4193): 1.782 ± 0.038 mPa·s
viscosity (298.15 K, 101 kPa, x1 = 0.6192): 1.667 ± 0.04 mPa·s
viscosity (303 K, 101.3 kPa, x1 = 0.026): 0.999 ± 0.027 mPa·s
viscosity (303 K, 101.3 kPa, x1 = 0.0503): 1.163 ± 0.03 mPa·s
viscosity (303 K, 101.3 kPa, x1 = 0.075): 1.312 ± 0.033 mPa·s
viscosity (303 K, 101.3 kPa, x1 = 0.0984): 1.395 ± 0.035 mPa·s
viscosity (303 K, 101.3 kPa, x1 = 0.1984): 1.588 ± 0.036 mPa·s
viscosity (303 K, 101.3 kPa, x1 = 0.3016): 1.609 ± 0.033 mPa·s
viscosity (303 K, 101.3 kPa, x1 = 0.4012): 1.566 ± 0.03 mPa·s
viscosity (303 K, 101.3 kPa, x1 = 0.5015): 1.523 ± 0.026 mPa·s
viscosity (303 K, 101.3 kPa, x1 = 0.5993): 1.492 ± 0.023 mPa·s
viscosity (303 K, 101.3 kPa, x1 = 0.6501): 1.45 ± 0.022 mPa·s
viscosity (303 K, 101.3 kPa, x1 = 0.8029): 1.444 ± 0.018 mPa·s
viscosity (303 K, 101.3 kPa, x1 = 0.9024): 1.468 ± 0.016 mPa·s
viscosity (308 K, 101.3 kPa, x1 = 0.026): 0.887 ± 0.024 mPa·s
viscosity (308 K, 101.3 kPa, x1 = 0.0503): 1.017 ± 0.027 mPa·s
viscosity (308 K, 101.3 kPa, x1 = 0.075): 1.138 ± 0.029 mPa·s
viscosity (308 K, 101.3 kPa, x1 = 0.0984): 1.214 ± 0.03 mPa·s
viscosity (308 K, 101.3 kPa, x1 = 0.1984): 1.398 ± 0.032 mPa·s
viscosity (308 K, 101.3 kPa, x1 = 0.3016): 1.406 ± 0.03 mPa·s
viscosity (308 K, 101.3 kPa, x1 = 0.4012): 1.375 ± 0.027 mPa·s
viscosity (308 K, 101.3 kPa, x1 = 0.5015): 1.338 ± 0.024 mPa·s
viscosity (308 K, 101.3 kPa, x1 = 0.5993): 1.305 ± 0.021 mPa·s
viscosity (308 K, 101.3 kPa, x1 = 0.6501): 1.284 ± 0.02 mPa·s
viscosity (308 K, 101.3 kPa, x1 = 0.8029): 1.278 ± 0.017 mPa·s
viscosity (308 K, 101.3 kPa, x1 = 0.9024): 1.296 ± 0.015 mPa·s
viscosity (313 K, 101.3 kPa, x1 = 0.026): 0.791 ± 0.022 mPa·s
viscosity (313 K, 101.3 kPa, x1 = 0.0503): 0.899 ± 0.024 mPa·s
viscosity (313 K, 101.3 kPa, x1 = 0.075): 1.002 ± 0.026 mPa·s
viscosity (313 K, 101.3 kPa, x1 = 0.0984): 1.065 ± 0.027 mPa·s
viscosity (313 K, 101.3 kPa, x1 = 0.1984): 1.223 ± 0.028 mPa·s
viscosity (313 K, 101.3 kPa, x1 = 0.3016): 1.235 ± 0.026 mPa·s
viscosity (313 K, 101.3 kPa, x1 = 0.4012): 1.211 ± 0.024 mPa·s
viscosity (313 K, 101.3 kPa, x1 = 0.5015): 1.179 ± 0.021 mPa·s
viscosity (313 K, 101.3 kPa, x1 = 0.5993): 1.159 ± 0.019 mPa·s
viscosity (313 K, 101.3 kPa, x1 = 0.6501): 1.145 ± 0.018 mPa·s
viscosity (313 K, 101.3 kPa, x1 = 0.8029): 1.136 ± 0.016 mPa·s
viscosity (313 K, 101.3 kPa, x1 = 0.9024): 1.152 ± 0.014 mPa·s
viscosity (323.15 K, 100 kPa, x1 = 0.1022): 0.85 ± 0.027 mPa·s
viscosity (323.15 K, 100 kPa, x1 = 0.2084): 0.944 ± 0.028 mPa·s
viscosity (323.15 K, 100 kPa, x1 = 0.3227): 0.949 ± 0.027 mPa·s
viscosity (323.15 K, 100 kPa, x1 = 0.4087): 0.94 ± 0.025 mPa·s
viscosity (323.15 K, 100 kPa, x1 = 0.5727): 0.911 ± 0.023 mPa·s
viscosity (323.15 K, 100 kPa, x1 = 0.7111): 0.912 ± 0.022 mPa·s
viscosity (323.15 K, 100 kPa, x1 = 0.9104): 0.935 ± 0.021 mPa·s
